Results from PubChem BioAssay AID1963851 (Molecular Pharmacology Branch, DTP, NCI, 2024).

Test system: 188146-221-R-J1-PDC complex spheroid viability
Assay: Anticancer human tumor 188146-221-R-J1-PDC patient-derived colon adenocarcinoma cell line growth inhibition [POLQ]
Conditions: for IC50: curve of first compound; for viability, T/C: stronger effect = lower value; active = viability on the fitted dose curve at most 10% of control; inactive = the rest
In short: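 Patient-derived tumour cells were co-cultured with HUVEC and mesenchymal stem cells as multicellular spheroids at 37 °C. They were treated with POLQ inhibitors (novobiocin, ART-558, RP6685) alone or combined with other agents. Top concentrations were at or near clinical Cmax (otherwise 10 microM; SN-38 at 1 microM), decreasing in half-log steps.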

[1] = second compound 0.0316 µM, first compound 0.0316 µM
[2] = second compound 0.0316 µM, first compound 0.1 µM
[3] = second compound 0.0316 µM, first compound 0.316 µM
[4] = second compound 0.0316 µM, first compound 1 µM
[5] = second compound 0.0316 µM, first compound 3.16 µM
[6] = second compound 0.0316 µM, first compound 10 µM
[7] = second compound 0.1 µM, first compound 0.0316 µM
[8] = second compound 0.1 µM, first compound 0.1 µM
[9] = second compound 0.1 µM, first compound 0.316 µM
[10] = second compound 0.1 µM, first compound 1 µM
[11] = second compound 0.1 µM, first compound 3.16 µM
[12] = second compound 0.1 µM, first compound 10 µM
[13] = second compound 0.316 µM, first compound 0.0316 µM
[14] = second compound 0.316 µM, first compound 0.1 µM
[15] = second compound 0.316 µM, first compound 0.316 µM
[16] = second compound 0.316 µM, first compound 1 µM
[17] = second compound 0.316 µM, first compound 3.16 µM
[18] = second compound 0.316 µM, first compound 10 µM
[19] = second compound 1 µM, first compound 0.0316 µM
[20] = second compound 1 µM, first compound 0.1 µM
[21] = second compound 1 µM, first compound 0.316 µM
[22] = second compound 1 µM, first compound 1 µM
[23] = second compound 1 µM, first compound 3.16 µM
[24] = second compound 1 µM, first compound 10 µM
[25] = second compound 3.16 µM, first compound 0.0316 µM
[26] = second compound 3.16 µM, first compound 0.1 µM
[27] = second compound 3.16 µM, first compound 0.316 µM
[28] = second compound 3.16 µM, first compound 1 µM
[29] = second compound 3.16 µM, first compound 3.16 µM
[30] = second compound 3.16 µM, first compound 10 µM
[31] = second compound 10 µM, first compound 0.0316 µM
[32] = second compound 10 µM, first compound 0.1 µM
[33] = second compound 10 µM, first compound 0.316 µM
[34] = second compound 10 µM, first compound 1 µM
[35] = second compound 10 µM, first compound 3.16 µM
[36] = second compound 10 µM, first compound 10 µM
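Note: spheroids exposed to compounds for seven days.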
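Throughout, for viability, T/C: 100% = DMSO vehicle control viability.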

C#Cc1c(F)ccc2cc(O)cc(-c3ncc4c(N5CC6CCC(C5)N6)nc(OCC56CCCN5CC(F)C6)nc4c3F)c12 (stereo not drawn) + Nc1ccc(C#CCN(C(=O)Cc2ncc(C(F)(F)F)cc2C(F)(F)F)c2ccc(F)cc2)nn1
inactive: viability, T/C [1] 94.3% | viability, T/C [2] 100% | viability, T/C [3] 98.2% | viability, T/C [4] 89.7% | viability, T/C [5] 83.2% | viability, T/C [6] 89.4% | viability, T/C [7] 99.9% | viability, T/C [8] 105% | viability, T/C [9] 95.5% | viability, T/C [10] 95.1% | viability, T/C [11] 89.9% | viability, T/C [12] 103% | viability, T/C [13] 103% | viability, T/C [14] 83.5% | viability, T/C [15] 100% | viability, T/C [16] 96.8% | viability, T/C [17] 87.8% | viability, T/C [18] 86.6% | viability, T/C [19] 88.6% | viability, T/C [20] 86.7% | viability, T/C [21] 98.8% | viability, T/C [22] 92.3% | viability, T/C [23] 91.3% | viability, T/C [24] 80.8% | viability, T/C [25] 106% | viability, T/C [26] 102% | viability, T/C [27] 102% | viability, T/C [28] 95.9% | viability, T/C [29] 100% | viability, T/C [30] 86.5% | viability, T/C [31] 102% | viability, T/C [32] 93.5% | viability, T/C [33] 87.1% | viability, T/C [34] 105% | viability, T/C [35] 106% | viability, T/C [36] 89.5%
> 10 µM: IC50 (second compound 0.0316 µM) | IC50 (second compound 0.1 µM) | IC50 (second compound 0.316 µM) | IC50 (second compound 1 µM) | IC50 (second compound 3.16 µM) | IC50 (second compound 10 µM)

CC(C)n1c(=O)n(C)c2cnc3cc(F)c(-c4ccc(OCCCN5CCCCC5)nc4)cc3c21 + Nc1ccc(C#CCN(C(=O)Cc2ncc(C(F)(F)F)cc2C(F)(F)F)c2ccc(F)cc2)nn1
inactive: viability, T/C [1] 87.3% | viability, T/C [2] 106% | viability, T/C [3] 95.4% | viability, T/C [4] 97.9% | viability, T/C [5] 83.6% | viability, T/C [6] 80.7% | viability, T/C [7] 101% | viability, T/C [8] 107% | viability, T/C [9] 94.9% | viability, T/C [10] 92.2% | viability, T/C [11] 92.6% | viability, T/C [12] 83.7% | viability, T/C [13] 94.8% | viability, T/C [14] 94.7% | viability, T/C [15] 89.4% | viability, T/C [16] 96.8% | viability, T/C [17] 103% | viability, T/C [18] 80.9% | viability, T/C [19] 104% | viability, T/C [20] 101% | viability, T/C [21] 88% | viability, T/C [22] 88.9% | viability, T/C [23] 93.7% | viability, T/C [24] 86.9% | viability, T/C [25] 99% | viability, T/C [26] 98.3% | viability, T/C [27] 99.5% | viability, T/C [28] 84.2% | viability, T/C [29] 95.3% | viability, T/C [30] 87.8% | viability, T/C [31] 105% | viability, T/C [32] 95.5% | viability, T/C [33] 98.4% | viability, T/C [34] 96.6% | viability, T/C [35] 97.9% | viability, T/C [36] 84.1%
> 10 µM: IC50 (second compound 0.0316 µM) | IC50 (second compound 0.1 µM) | IC50 (second compound 0.316 µM) | IC50 (second compound 1 µM) | IC50 (second compound 3.16 µM) | IC50 (second compound 10 µM)

COc1cc2cc(C(=O)CCC(=O)O)sc2cc1OC + Nc1ccc(C#CCN(C(=O)Cc2ncc(C(F)(F)F)cc2C(F)(F)F)c2ccc(F)cc2)nn1
inactive: viability, T/C [1] 115% | viability, T/C [2] 102% | viability, T/C [3] 96.4% | viability, T/C [4] 119% | viability, T/C [5] 90.2% | viability, T/C [6] 105% | viability, T/C [7] 105% | viability, T/C [8] 115% | viability, T/C [9] 107% | viability, T/C [10] 96.2% | viability, T/C [11] 118% | viability, T/C [12] 102% | viability, T/C [13] 109% | viability, T/C [14] 100% | viability, T/C [15] 89.3% | viability, T/C [16] 107% | viability, T/C [17] 107% | viability, T/C [18] 97.4% | viability, T/C [19] 117% | viability, T/C [20] 116% | viability, T/C [21] 106% | viability, T/C [22] 96.3% | viability, T/C [23] 104% | viability, T/C [24] 102% | viability, T/C [25] 105% | viability, T/C [26] 114% | viability, T/C [27] 96.8% | viability, T/C [28] 119% | viability, T/C [29] 109% | viability, T/C [30] 118% | viability, T/C [31] 101% | viability, T/C [32] 130% | viability, T/C [33] 98.5% | viability, T/C [34] 113% | viability, T/C [35] 104% | viability, T/C [36] 120%
> 10 µM: IC50 (second compound 0.0316 µM) | IC50 (second compound 0.1 µM) | IC50 (second compound 0.316 µM) | IC50 (second compound 1 µM) | IC50 (second compound 3.16 µM) | IC50 (second compound 10 µM)

COc1ccc([C@@H](O)c2cc(-c3ncnc4cc(N5CCOCC5)ccc34)c(F)cc2Cl)nn1 + Nc1ccc(C#CCN(C(=O)Cc2ncc(C(F)(F)F)cc2C(F)(F)F)c2ccc(F)cc2)nn1
6.82 µM: IC50 (second compound 0.0316 µM)
6.9 µM: IC50 (second compound 0.1 µM)
8.15 µM: IC50 (second compound 1 µM)
inactive: viability, T/C [1] 103% | viability, T/C [2] 118% | viability, T/C [3] 96.6% | viability, T/C [4] 87.6% | viability, T/C [5] 65.1% | viability, T/C [6] 42.5% | viability, T/C [7] 109% | viability, T/C [8] 91.3% | viability, T/C [9] 91.1% | viability, T/C [10] 83.9% | viability, T/C [11] 74.1% | viability, T/C [12] 39% | viability, T/C [13] 122% | viability, T/C [14] 95.3% | viability, T/C [15] 95.5% | viability, T/C [16] 83.6% | viability, T/C [17] 82.5% | viability, T/C [18] 44.5% | viability, T/C [19] 103% | viability, T/C [20] 96.8% | viability, T/C [21] 91.9% | viability, T/C [22] 87.2% | viability, T/C [23] 69.8% | viability, T/C [24] 45.3% | viability, T/C [25] 104% | viability, T/C [26] 102% | viability, T/C [27] 110% | viability, T/C [28] 97.6% | viability, T/C [29] 81.7% | viability, T/C [30] 38.8% | viability, T/C [31] 102% | viability, T/C [32] 104% | viability, T/C [33] 103% | viability, T/C [34] 91.6% | viability, T/C [35] 63.9% | viability, T/C [36] 43.3%
7.39 µM: IC50 (second compound 3.16 µM)
6.86 µM: IC50 (second compound 10 µM)
> 10 µM: IC50 (second compound 0.316 µM)
